Data published in patent publication US7998754B2, “In vitro method for the simultaneous detection and identification of antibiotics of different classes and corresponding diagnostic kit” (Unisensor S.A., priority 2005, dated 2011).
Where two headings read alike, the source gives them in different places.

What was measured:
[1] = system: tetracycline receptor (TetR); experiment: Example 5 dipstick test in milk, tetracycline capture zone (format 1); format: binding, E. Coli
Method: (§1) This mixture is either prepared as required or lyophilisated for 20 hours.
(§2) 200 μL of cold milk are incubated for 15 minutes at 30° C. in the presence of 50 μL of the reagents prepared above. After this first incubation, the above-described recovery element is immersed in the solution. Final interpretation is made after a second incubation of 15 minutes.

[2] = system: anti-sulfadimethoxin antibody; experiment: Example 2 three-parameter dipstick test in milk, sulfadimethoxin capture zone (format 1); format: binding
Method: (§3) This mixture is prepared either as required or lyophilisated for 20 hours. The Recovery System
(§4) The other capture zones are identical but differently positioned, as in FIG. 2.
The preparation is achieved by the procedure described by Dixon-Holland and Katz^(9). 100 mg of sulfadimethoxin and 200 mg of BSA solubilized in 25 ml of a mixture, comprising two parts of a phosphate buffer of 50 mM, pH 7.2 and 1 part of dioxane, are incubated in the presence of 120 μL of 25% glutaraldehyde stirred for 3 hours at 25° C. The solution is then dialysed for 6 days at 4° C. against 100 volumes of a buffer of NaPi 50 mM, pH 7.2 with a change of buffer every 12 hours.
(§5) A single control zone serves as a reference for the three markers.
(§6) 200 μL of cold milk are incubated at 50° C. in the presence of 50 μl of the reagents prepared and/or lyophilisated as above. After 3 minutes of incubation at 50° C., the above-described recovery element is immersed in the solution. The final interpretation is made after 3 minutes of incubation by means of an optical dipstick reader available at Matest (Germany).
(§7) As a general rule, if the ratio of the intensities of the concerned test signal relative to the control signal is less than or equal to 1, the sample is considered as positive for the parameter (compound) concerned.

[3] = system: tetracycline receptor (TetR); experiment: Example 2 three-parameter dipstick test in milk, tetracycline capture zone (format 1); format: binding, E. Coli
Method: as §3, §4, §5, §6, §7

β-lactame receptor (RSA) [4] = target: T1, β-lactame receptor (RSA) (Staphylococcus aureus, UniProt P18357); format: binding; settings: milk
T1 construct: made in house
T1 sequence (P18357 331-585 limits assumed): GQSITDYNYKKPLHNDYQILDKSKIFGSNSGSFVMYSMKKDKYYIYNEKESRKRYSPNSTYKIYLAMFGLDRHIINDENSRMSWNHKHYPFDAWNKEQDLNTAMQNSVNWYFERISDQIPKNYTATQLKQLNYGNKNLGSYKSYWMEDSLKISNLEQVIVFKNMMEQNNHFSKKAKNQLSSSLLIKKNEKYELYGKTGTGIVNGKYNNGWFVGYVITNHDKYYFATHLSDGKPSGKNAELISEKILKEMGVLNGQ
Method: as §3, §4, §5, §6, §7

[5] = system: polyclonal antisulfamide rabbit antibody; experiment: Example 5 dipstick test in milk, sulfamide capture zone (format 2); format: binding
Method: as §1, §2

β-lactame receptor (RSA) [6] = target: T1, β-lactame receptor (RSA); format: binding; settings: milk; remark: listed apart in the source
Method: (§8) The reactive mixture comprises: • 5 parts of β-lactame receptor (RSA) at a concentration of 360 nM; • 10 parts of a monoclonal anti-RSA antibody attached to colloidal gold (OD=10 at 520 nm); • 1 part of biotinylated and diluted anti-sulfadimethoxin in NaPi 50 mM, NaCl 150 mM, pH 7.8; • 10 parts of a dilution of BSA-sulfadimethoxin-gold of 40 nm; • 24 parts of Hepes buffer 120 mM, pH 8, BSA 2%, Dextran 1%, sucrose 5%. This mixture is prepared either as required or lyophilisated for 20 hours. Biotinylation of the Anti-Sulfadimethoxin Antibody
(§9) The recovery system is identical to that of example 1. However, in the present case, it is the biotinylated antisulfamide antibody that will be recovered in the avidine fixed at the second capture point above the control zone.
as §2

[7] = system: biotinylated anti-sulfadimethoxin antibody; experiment: Example 3 dipstick test in milk, sulfamide capture zone (format 2); format: binding
Method: as §8
825 μL of a solution comprising 5 mg/ml of anti-sulfadimethoxin antibody dialysed in a carbonate buffer 100 mM, pH 9.2 are incubated in the presence of 165 μL of a solution of biotin-LC-NHS at 1.5 mg/ml (available at Perbio, Inc.) for 2 hours at 25° C. sheltered from light. The reaction is blocked by the addition of 10 μL of a solution of a Tris buffer 1M pH 8 for 30 minutes before dialysis 2× for 10 hours against a buffer of NaPi 50 mM, NaCl 150 mM, pH 7.8.
The preparation of BSA-sulfadimethoxin described in example no. 2 is used fixed to particles of colloidal gold in a protocol similar to that described in example no. 1 for preparing the control BSA-gold solution.
as §9, §2

[8] = system: tetracycline receptor (TetR); experiment: Example 4 dipstick test in meat (pig muscle) extract, tetracycline capture zone (format 2); format: binding, E. Coli
Method: (§10) This mixture is either prepared as required or lyophilisated for 20 hours. The Recovery System
(§11) The recovery system is similar to that of example 1. However, in the present case, it is an anti-mouse antibody that forms the first capture point where the monoclonal anti-TetR antibody will be recovered and it is a chicken anti-rabbit antibody that forms the second capture point where the antisulfamide antibody will be recovered.
(§12) 30 ml of a buffer of NaPi 50 mM, pH 8 is added to 10 g of pig muscle and the mixture is mixed with a mixer of type MiniMix (Interscience, F) for 2 minutes. The solution, collected in an Eppendorf tube, is then centrifuged for 1 minute at 6,000 rpm to recover the supernatant from it. 200 μL of supernatant are incubated for 15 minutes at 25° C. in the presence of 50 μL of the reagents prepared above. After this first incubation, the above-described recovery element is immersed in the solution. The final interpretation is made after a second incubation of 15 minutes.

[9] = system: antisulfamide rabbit antibody; experiment: Example 4 dipstick test in meat (pig muscle) extract, sulfamide capture zone (format 2); format: binding
Method: as §10, §11, §12

β-lactame receptor (RSA) [10] = target: T1, β-lactame receptor (RSA); format: binding; settings: milk; remark: listed apart in the source
Method: as §1, §2

COc1cc(NS(=O)(=O)c2ccc(N)cc2)nc(OC)n1 [Sulfadimethoxin]
Ratio of the measurement intensities T/C ([1]; sulfamide 50 ppb): 2.8
Ratio of the measurement intensities T/C ([1]; sulfamide 100 ppb): 2.7
Ratio of the measurement intensities T/C ([1]; sulfamide 200 ppb): 3
Ratio of the measurement intensities S/C ([2]; ampicillin 4 + tetracycline 75 + sulfamide 100 ppb together): 0.7
Ratio test/control ([2]; at the detection limit concentration): 0.8
Concentration detection limit ([2]; sulfadimethoxin, three-parameter test): 100 ppb
Ratio of the measurement intensities S/C ([2]; sulfamide 50 ppb): 1.3
Ratio of the measurement intensities S/C ([2]; sulfamide 100 ppb): 0.8
Ratio of the measurement intensities S/C ([2]; sulfamide 150 ppb): 0.6
Ratio of the measurement intensities S/C ([2]; sulfamide 200 ppb): 0.4
Ratio of the measurement intensities T/C ([3]; sulfamide 50 ppb): 1.9
Ratio of the measurement intensities T/C ([3]; sulfamide 100 ppb): 1.9
Ratio of the measurement intensities T/C ([3]; sulfamide 150 ppb): 2.1
Ratio of the measurement intensities T/C ([3]; sulfamide 200 ppb): 2.1
Ratio of the measurement intensities B/C (β-lactame receptor (RSA) [4]; sulfamide 50 ppb): 2.4
Ratio of the measurement intensities B/C (β-lactame receptor (RSA) [4]; sulfamide 100 ppb): 2.2
Ratio of the measurement intensities B/C (β-lactame receptor (RSA) [4]; sulfamide 150 ppb): 1.9
Ratio of the measurement intensities B/C (β-lactame receptor (RSA) [4]; sulfamide 200 ppb): 2.4
Ratio of the measurement intensities S/C ([5]; sulfamide 50 ppb): 1.3
Ratio of the measurement intensities S/C ([5]; sulfamide 100 ppb): 0.9
Ratio of the measurement intensities S/C ([5]; sulfamide 200 ppb): 0.3
Ratio of the measurement intensities S/C ([5]; β-lactame 4 + tetracycline 100 + sulfamide 100 ppb together): 0.8
Ratio of the measurement intensities B/C (β-lactame receptor (RSA) [6]; sulfamide 50 ppb): 1.95
Ratio of the measurement intensities B/C (β-lactame receptor (RSA) [6]; sulfamide 100 ppb): 1.9
Ratio of the measurement intensities B/C (β-lactame receptor (RSA) [6]; sulfamide 150 ppb): 2.2
Ratio of the measurement intensities B/C (β-lactame receptor (RSA) [6]; sulfamide 200 ppb): 2.1
Ratio of the measurement intensities S/C ([7]; sulfamide 50 ppb): 2
Ratio of the measurement intensities S/C ([7]; sulfamide 100 ppb): 1
Ratio of the measurement intensities S/C ([7]; sulfamide 150 ppb): 0.85
Ratio of the measurement intensities S/C ([7]; sulfamide 200 ppb): 0.7
Ratio of the measurement intensities S/C ([7]; β-lactame 4 + sulfamide 100 ppb together): 0.95
Ratio of the measurement intensities T/C ([8]; sulfamide 50 ppb): 3.4
Ratio of the measurement intensities T/C ([8]; sulfamide 100 ppb): 3.1
Ratio of the measurement intensities T/C ([8]; sulfamide 150 ppb): 3.4
Ratio of the measurement intensities T/C ([8]; sulfamide 200 ppb): 3
Ratio of the measurement intensities S/C ([9]; sulfamide 50 ppb): 1.6
Ratio of the measurement intensities S/C ([9]; sulfamide 100 ppb): 1
Ratio of the measurement intensities S/C ([9]; sulfamide 150 ppb): 0.85
Ratio of the measurement intensities S/C ([9]; sulfamide 200 ppb): 0.7
Ratio of the measurement intensities S/C ([9]; tetracycline 100 + sulfamide 100 ppb together): 0.95
Ratio of the measurement intensities B/C (β-lactame receptor (RSA) [10]; sulfamide 50 ppb): 2.1
Ratio of the measurement intensities B/C (β-lactame receptor (RSA) [10]; sulfamide 100 ppb): 1.8
Ratio of the measurement intensities B/C (β-lactame receptor (RSA) [10]; sulfamide 200 ppb): 1.8
